The values below are quoted from earlier work in US7803786B2, “Pharmaceutical co-crystal compositions and related methods of use” (Transform Pharmaceuticals, Inc., priority 2004, dated 2010).

The conditions of data set [1]: Cambridge Structural Database (piracetam), Merck Index (gentisic acid).
For data set [2] the following is noted: co-crystal former; multiple values for multiple functionalities.

For `O=C(O)c1cc(O)ccc1O` [gentisic acid], the “known polymorphism of the free form” value in data set [1] is “dimorphic”. Take `NC(=O)CN1CCCC1=O` [piracetam]: the “known polymorphism of the free form” value in data set [1] is “Three polymorphs”. Take `O=C(O)C(O)C(O)C(O)C(O)CO` (stereo not drawn) [Gluconic acid]: the “pKa Values” in data set [2] is listed as 3.76.
